Experimental data from ChEMBL document CHEMBL3227964 (J Med Chem, 1979).
Calls of active or inactive are those of the source. No cut-off for these calls is given here.

Legend:
Escherichia coli [1] = test: Antimicrobial activity against Escherichia coli AB1157 assessed as reduction in colony formation at 1 mM; type: organism-based; details: in vivo, 1000 µM
Escherichia coli [2] = test: Induction of sensitization to irradiation in Escherichia coli AB1157 under oxic condition assessed as reduction in colony formation at 1 mM measured after irradiation; type: organism-based; details: in vivo, 1000 µM
Escherichia coli [3] = test: Induction of sensitization to irradiation in Escherichia coli AB1157 under hypoxic condition assessed as reduction in colony formation at 1 mM measured after irradiation; type: functional, organism-based

Row | Structure (SMILES) | Activity (Escherichia coli [1]) | Activity (Escherichia coli [2]) | Activity (Escherichia coli [3])
1 | O=[N+]([O-])c1cnc2n1CCO2 | Non-toxic | Toxic | Active
2 | O=[N+]([O-])c1ncn(CCO)c1Cl | Non-toxic | Toxic | Active
3 | COCC(O)Cn1ccnc1[N+](=O)[O-] (configuration not stated) |  |  | Active
